Experimental data reported in ChEMBL document CHEMBL5465560, “Selectivity Literature for EUbOPEN Chemogenomic Library” (2024).

How the values were obtained:
[1] = target: T1, Serine/threonine-protein kinase LATS2 (Homo sapiens) (UniProt Q9NRM7); assay: Selectivity interaction (KinomeScan (DiscoverX)) EUB0001079a LATS2; settings: at 1 µM
T1 sequence (whole entry): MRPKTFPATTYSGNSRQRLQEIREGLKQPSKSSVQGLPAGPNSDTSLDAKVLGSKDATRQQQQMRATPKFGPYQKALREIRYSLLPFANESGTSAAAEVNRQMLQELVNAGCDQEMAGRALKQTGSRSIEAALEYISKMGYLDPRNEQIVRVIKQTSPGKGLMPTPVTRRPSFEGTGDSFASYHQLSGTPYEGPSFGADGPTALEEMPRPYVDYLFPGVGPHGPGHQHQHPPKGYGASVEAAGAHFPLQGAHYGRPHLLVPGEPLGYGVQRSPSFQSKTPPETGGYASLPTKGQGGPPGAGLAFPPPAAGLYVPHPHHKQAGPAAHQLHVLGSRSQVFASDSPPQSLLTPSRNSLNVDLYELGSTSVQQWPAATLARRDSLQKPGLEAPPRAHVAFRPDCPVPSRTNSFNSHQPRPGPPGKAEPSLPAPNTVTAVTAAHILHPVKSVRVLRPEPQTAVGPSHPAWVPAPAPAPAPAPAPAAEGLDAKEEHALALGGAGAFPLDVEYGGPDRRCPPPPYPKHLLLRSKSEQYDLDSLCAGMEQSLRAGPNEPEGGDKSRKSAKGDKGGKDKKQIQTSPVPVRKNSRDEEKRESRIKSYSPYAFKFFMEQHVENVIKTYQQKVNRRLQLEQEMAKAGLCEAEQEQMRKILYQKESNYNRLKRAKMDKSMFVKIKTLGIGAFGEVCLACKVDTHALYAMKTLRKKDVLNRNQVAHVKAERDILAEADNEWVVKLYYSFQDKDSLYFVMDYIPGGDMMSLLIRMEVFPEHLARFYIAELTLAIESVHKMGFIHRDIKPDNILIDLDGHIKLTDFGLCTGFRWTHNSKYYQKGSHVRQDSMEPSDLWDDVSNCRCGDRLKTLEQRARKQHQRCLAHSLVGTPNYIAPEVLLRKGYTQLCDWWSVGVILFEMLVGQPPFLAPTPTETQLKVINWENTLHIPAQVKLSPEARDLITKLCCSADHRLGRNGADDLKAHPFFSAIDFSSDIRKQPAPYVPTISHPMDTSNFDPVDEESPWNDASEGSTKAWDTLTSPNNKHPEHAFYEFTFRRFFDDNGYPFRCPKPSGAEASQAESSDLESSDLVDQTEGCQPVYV

[2] = target: Tyrosine-protein kinase receptor UFO (Homo sapiens) (UniProt P30530); assay: Selectivity interaction (KinomeScan (DiscoverX)) EUB0000618a AXL; settings: at 10 µM
[3] = target: T2, Serine/threonine-protein kinase DCLK3 (Homo sapiens) (UniProt Q9C098); assay: Selectivity interaction (KinomeScan (DiscoverX)) EUB0000607a DCLK3; settings: at 10 µM
T2 sequence (whole entry): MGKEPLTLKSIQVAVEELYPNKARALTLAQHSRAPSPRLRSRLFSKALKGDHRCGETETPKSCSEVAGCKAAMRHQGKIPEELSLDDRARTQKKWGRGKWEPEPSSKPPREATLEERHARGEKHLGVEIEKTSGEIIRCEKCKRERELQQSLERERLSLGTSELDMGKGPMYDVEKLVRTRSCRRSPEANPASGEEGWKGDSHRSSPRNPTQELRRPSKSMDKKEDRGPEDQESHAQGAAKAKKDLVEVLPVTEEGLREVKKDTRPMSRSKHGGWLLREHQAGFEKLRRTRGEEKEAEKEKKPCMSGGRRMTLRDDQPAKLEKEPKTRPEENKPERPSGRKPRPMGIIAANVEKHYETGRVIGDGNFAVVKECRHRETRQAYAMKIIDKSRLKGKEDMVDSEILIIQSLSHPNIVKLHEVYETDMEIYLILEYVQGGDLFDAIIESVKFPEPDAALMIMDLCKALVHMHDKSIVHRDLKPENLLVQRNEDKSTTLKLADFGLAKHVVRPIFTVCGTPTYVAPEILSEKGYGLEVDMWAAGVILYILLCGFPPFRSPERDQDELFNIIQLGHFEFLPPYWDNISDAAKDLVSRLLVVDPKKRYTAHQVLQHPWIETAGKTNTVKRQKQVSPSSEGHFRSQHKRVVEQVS

[4] = target: Dual specificity protein kinase CLK2 (Homo sapiens, UniProt P49760); assay: Selectivity interaction (KinomeScan (DiscoverX)) EUB0001619a CLK2; settings: at 1 µM
[5] = target: Tyrosine-protein kinase SYK (Homo sapiens, UniProt P43405); assay: Selectivity interaction (KinomeScan (DiscoverX)) EUB0000595a SYK; settings: at 10 µM
[6] = target: T3, Dual specificity tyrosine-phosphorylation-regulated kinase 2 (Homo sapiens) (UniProt Q92630); assay: Selectivity interaction (KinomeScan (DiscoverX)) EUB0000666a DYRK2; settings: at 10 µM
T3 sequence (whole entry): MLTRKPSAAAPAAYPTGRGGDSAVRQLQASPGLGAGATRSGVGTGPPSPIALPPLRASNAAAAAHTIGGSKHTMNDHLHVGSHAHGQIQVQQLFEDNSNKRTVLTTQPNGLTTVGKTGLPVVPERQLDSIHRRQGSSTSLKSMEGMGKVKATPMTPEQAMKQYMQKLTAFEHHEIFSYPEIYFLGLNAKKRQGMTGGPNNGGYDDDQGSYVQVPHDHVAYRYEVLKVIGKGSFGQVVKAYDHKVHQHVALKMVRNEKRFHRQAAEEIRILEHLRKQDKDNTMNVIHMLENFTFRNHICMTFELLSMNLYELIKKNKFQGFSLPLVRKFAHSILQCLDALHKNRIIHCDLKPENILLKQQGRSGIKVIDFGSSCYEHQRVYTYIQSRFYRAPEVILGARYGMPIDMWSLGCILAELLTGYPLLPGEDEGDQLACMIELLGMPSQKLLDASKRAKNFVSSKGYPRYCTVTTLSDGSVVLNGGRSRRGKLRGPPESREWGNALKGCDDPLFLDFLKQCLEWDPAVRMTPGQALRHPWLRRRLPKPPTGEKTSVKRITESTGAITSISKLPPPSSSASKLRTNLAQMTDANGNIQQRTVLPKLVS

[7] = target: Death-associated protein kinase 3 (Homo sapiens) (UniProt O43293); assay: Selectivity interaction (Kinase panel (Z-LYTE Assay)) EUB0001632a DAPK3; settings: at 10 µM
Chain of Death-associated protein kinase 3 (Homo sapiens) (O43293 whole entry, looked up): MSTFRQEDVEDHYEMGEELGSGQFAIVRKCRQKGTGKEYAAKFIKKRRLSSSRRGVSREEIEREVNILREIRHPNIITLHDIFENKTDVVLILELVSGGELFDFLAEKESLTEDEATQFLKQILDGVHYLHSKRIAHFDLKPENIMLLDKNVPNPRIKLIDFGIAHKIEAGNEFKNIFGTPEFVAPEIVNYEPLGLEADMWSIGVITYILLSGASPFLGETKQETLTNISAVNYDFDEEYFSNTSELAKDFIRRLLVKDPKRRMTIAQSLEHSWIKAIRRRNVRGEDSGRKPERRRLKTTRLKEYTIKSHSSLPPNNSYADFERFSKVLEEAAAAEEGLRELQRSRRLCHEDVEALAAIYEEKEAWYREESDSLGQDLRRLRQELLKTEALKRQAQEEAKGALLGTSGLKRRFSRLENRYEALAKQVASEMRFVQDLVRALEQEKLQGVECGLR

Chain of Tyrosine-protein kinase receptor UFO (Homo sapiens) (P30530 whole entry): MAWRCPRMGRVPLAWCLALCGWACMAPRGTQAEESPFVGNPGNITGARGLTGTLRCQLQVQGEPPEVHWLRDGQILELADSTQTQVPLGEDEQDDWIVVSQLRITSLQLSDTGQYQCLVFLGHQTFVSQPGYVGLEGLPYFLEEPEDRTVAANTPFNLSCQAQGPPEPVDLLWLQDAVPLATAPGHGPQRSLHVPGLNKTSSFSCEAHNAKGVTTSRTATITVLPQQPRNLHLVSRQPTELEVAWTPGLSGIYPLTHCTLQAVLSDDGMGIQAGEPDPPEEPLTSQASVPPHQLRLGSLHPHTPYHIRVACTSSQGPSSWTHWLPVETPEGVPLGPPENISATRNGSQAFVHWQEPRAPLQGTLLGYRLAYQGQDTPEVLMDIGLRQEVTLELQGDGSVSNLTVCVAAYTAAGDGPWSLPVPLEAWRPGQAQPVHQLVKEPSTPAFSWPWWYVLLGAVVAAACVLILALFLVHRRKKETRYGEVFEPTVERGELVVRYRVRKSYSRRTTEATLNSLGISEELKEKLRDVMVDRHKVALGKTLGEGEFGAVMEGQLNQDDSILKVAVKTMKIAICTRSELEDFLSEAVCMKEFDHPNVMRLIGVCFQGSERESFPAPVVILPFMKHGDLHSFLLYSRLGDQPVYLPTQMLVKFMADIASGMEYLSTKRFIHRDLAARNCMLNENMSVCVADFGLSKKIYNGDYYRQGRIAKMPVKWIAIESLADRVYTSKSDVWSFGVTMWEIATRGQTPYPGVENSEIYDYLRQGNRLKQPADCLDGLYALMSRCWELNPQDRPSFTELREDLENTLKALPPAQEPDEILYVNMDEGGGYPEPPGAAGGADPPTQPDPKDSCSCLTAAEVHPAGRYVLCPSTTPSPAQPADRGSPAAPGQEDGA
Chain of Dual specificity protein kinase CLK2 (P49760 whole entry, looked up): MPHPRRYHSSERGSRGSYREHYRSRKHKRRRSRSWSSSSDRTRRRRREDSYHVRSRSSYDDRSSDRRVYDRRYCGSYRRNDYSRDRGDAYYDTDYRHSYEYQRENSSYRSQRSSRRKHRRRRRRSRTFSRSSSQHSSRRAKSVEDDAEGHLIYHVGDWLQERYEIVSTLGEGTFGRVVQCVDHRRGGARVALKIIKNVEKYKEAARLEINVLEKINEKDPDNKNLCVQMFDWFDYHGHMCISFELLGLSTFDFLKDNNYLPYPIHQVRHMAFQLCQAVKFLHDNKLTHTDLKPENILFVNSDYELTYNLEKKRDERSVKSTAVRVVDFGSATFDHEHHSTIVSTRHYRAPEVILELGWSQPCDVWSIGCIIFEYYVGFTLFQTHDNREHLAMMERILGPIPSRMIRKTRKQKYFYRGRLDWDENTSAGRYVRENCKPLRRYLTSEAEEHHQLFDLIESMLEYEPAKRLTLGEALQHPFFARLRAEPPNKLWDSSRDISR

Nc1cnc(N2CCc3cc(S(=O)(=O)Nc4c(F)cc(Cl)cc4F)cc(N4CCCC4=O)c32)nc1 [TP-020n]
% of control [1]: 100%

O[C@H]1CC[C@H](Nc2ncc3nc(Nc4c(F)cc(F)cc4F)n([C@H]4CCOC4)c3n2)CC1
% of control [2]: 86%

CNC(=O)Nc1ccc(-c2nc(N3CC4CCC(C3)O4)c3cnn(C4CCC5(CC4)OCCO5)c3n2)cc1
% of control [3]: 100%

N#Cc1cccc(-c2c[nH]c3ncnc(N4CCOCC4)c23)c1
% of control [4]: 64%

COCC(=O)NC/C=C/c1ccc2ncnc(Nc3ccc(Oc4ccc(C)nc4)c(C)c3)c2c1 [CP-724714]
% of control [5]: 100%

O=C(NOC[C@H](O)CO)c1ccc(F)c(F)c1Nc1ccc(I)cc1F
% of control [6]: 95%

Cn1cc(-n2cnc3c(NCc4nc5cc(Cl)c(Cl)cc5[nH]4)nc(N4CCOCC4)nc32)cn1
% of control [7]: -3.73%
